One assay addresses hBACE 1 (Homo sapiens, UniProt P56817). The assay can be described thus: BACE 1 inhibition assay. The format is biochemical.
The next assay deals with EeAChE (Electrophorus electricus, UniProt O42275). Briefly: AChE inhibition assay. The format is biochemical.
Where [1] appears, read: read-out: hBACE 1 IC50 (μM) ± SD, FRET assay, mean ± SD of three experiments.
The mark [2] stands for this setting: read-out: eeAChE IC50 (μM) ± SD, Ellman assay, mean ± SD of three experiments.

SMILES strings stand for the structures. Read-outs that look alike come from different tables or passages of the source.

Sequence of EeAChE (O42275 24-633): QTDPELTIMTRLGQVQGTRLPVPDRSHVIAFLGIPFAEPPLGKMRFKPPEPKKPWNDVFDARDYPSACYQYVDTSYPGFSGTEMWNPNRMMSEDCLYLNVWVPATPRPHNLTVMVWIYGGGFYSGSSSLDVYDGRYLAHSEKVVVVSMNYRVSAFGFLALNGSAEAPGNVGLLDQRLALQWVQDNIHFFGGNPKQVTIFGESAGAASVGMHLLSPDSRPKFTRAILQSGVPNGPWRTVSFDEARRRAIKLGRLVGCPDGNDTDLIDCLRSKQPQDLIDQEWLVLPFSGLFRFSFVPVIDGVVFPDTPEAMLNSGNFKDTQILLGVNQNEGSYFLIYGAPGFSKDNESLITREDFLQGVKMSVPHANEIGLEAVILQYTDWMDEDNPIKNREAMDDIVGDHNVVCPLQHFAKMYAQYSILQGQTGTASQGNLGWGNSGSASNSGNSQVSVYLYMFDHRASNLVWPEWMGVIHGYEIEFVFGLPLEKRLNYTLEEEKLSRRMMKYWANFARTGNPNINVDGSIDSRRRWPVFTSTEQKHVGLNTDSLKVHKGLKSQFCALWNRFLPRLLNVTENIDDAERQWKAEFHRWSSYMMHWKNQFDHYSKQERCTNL
Sequence of hBACE 1 (P56817 46-501): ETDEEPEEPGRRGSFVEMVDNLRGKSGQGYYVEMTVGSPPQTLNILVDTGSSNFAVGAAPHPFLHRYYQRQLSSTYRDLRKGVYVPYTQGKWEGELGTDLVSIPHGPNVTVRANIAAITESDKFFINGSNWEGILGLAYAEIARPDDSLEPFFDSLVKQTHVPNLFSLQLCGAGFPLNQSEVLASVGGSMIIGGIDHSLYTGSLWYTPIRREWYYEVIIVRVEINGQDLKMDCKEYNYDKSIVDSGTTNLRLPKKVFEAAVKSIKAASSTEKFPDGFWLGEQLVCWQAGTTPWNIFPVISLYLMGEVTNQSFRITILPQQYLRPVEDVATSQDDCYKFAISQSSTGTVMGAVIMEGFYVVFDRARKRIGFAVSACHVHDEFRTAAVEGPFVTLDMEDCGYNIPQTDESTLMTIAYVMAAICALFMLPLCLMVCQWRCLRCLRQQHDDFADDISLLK

Broadly, the IC50 is the concentration that gives 50% inhibition. Regarding `[H]/N=C(/N)NN=C(/C=C/c1ccccc1)c1cccn1Cc1ccccc1F` [Compound 2g, (Z)-2-((E)-1-(1-(2-Fluorobenzyl)-1H-pyrrol-2-yl)-3-phenylallylidene)hydrazine-1-carboximidamide], the IC50 on hBACE 1 was 100.8 ± 0.57 µM; against EeAChE, 163 ± 3.18 µM.
Take `[H]/N=C(/N)NN=C(/C=C/c1ccccc1)c1cccn1Cc1cccc(Br)c1` [Compound 2m, (Z)-2-((E)-1-(1-(3-Bromobenzyl)-1H-pyrrol-2-yl)-3-phenylallylidene)hydrazine-1-carboximidamide]: the half-inhibitory concentration (IC50) stood at 134 ± 3.11 µM against hBACE 1 and 51.14 ± 0.22 µM at EeAChE.
`[H]/N=C(/N)NN=C(/C=C/c1ccccc1)c1cccn1Cc1ccc(CCCC)cc1` [Compound 2j, (Z)-2-((E)-1-(1-(4-Butylbenzyl)-1H-pyrrol-2-yl)-3-phenylallylidene)hydrazine-1-carboximidamide]: the IC50 on hBACE 1 was 132.7 ± 1.22 µM; against EeAChE it was 55.4 ± 4.19 µM.
`[H]/N=C(/N)NN=C(/C=C/c1ccccc1)c1cccn1Cc1ccccc1` [Compound 1a, (Z)-2-((E)-1-(1-Benzyl-1H-pyrrol-2-yl)-3-phenylallylidene)hydrazine-1-carboximidamide]: the IC50 against hBACE 1 came to 169.9 ± 1.27 µM; at EeAChE, 215.3 ± 0.14 µM.
As for `[H]/N=C(/N)NN=C(/C=C/c1ccccc1)c1cccn1Cc1ccc(C(C)(C)C)cc1` [Compound 2q, (Z)-2-((E)-1-(1-(4-(tert-Butyl)benzyl)-1H-pyrrol-2-yl)-3-phenylallylidene)hydrazine-1-carboximidamide], the IC50 turned out to be 167.5 ± 0.71 µM against hBACE 1 and 48.52 ± 0.23 µM at EeAChE.
With `[H]/N=C(/N)NN=C(/C=C/c1ccc(C(C)(C)C)cc1)c1cccn1Cc1ccc(C(C)(C)C)cc1` [Compound 3k, (Z)-2-((E)-1-(1-(4-(tert-Butyl)benzyl)-1H-pyrrol-2-yl)-3-(4-(tert-butyl)phenyl)allylidene)hydrazine-1-carboximidamide], the IC50 against hBACE 1 is 178.2 ± 0.92 µM; against EeAChE it was 48.1 ± 0.52 µM.
For `[H]/N=C(/N)NN=C(/C=C/c1ccccc1)c1cccn1Cc1ccc(OC(F)(F)F)cc1` [Compound 2b, (Z)-2-((E)-3-Phenyl-1-(1-(4-(trifluoromethoxy)benzyl)-1H-pyrrol-2-yl)allylidene)hydrazine-1-carboximidamide], the IC50 on hBACE 1 (setting [1]) is 86.19 ± 0.38 µM; on EeAChE (setting [2]) it was 231.7 ± 1.27 µM.
In the case of `[H]/N=C(/N)NN=C(/C=C/c1ccccc1)c1cccn1Cc1ccc(F)cc1C(F)(F)F` [Compound 2h, (Z)-2-((E)-1-(1-(4-Fluoro-2-(trifluoromethyl)benzyl)-1H-pyrrol-2-yl)-3-phenylallylidene)hydrazine-1-carboximidamide], the IC50 is 74.2 ± 1.8 µM against hBACE 1 and 57.1 ± 3.91 µM against EeAChE.
The matching figures for `[H]/N=C(/N)NN=C(/C=C/c1ccccc1)c1cccn1Cc1ccc(F)cc1F` [Compound 2k, (Z)-2-((E)-1-(1-(2,4-Difluorobenzyl)-1H-pyrrol-2-yl)-3-phenylallylidene)hydrazine-1-carboximidamide]: 133 ± 1.84 µM and 61.1 ± 1.48 µM.
For the compound `[H]/N=C(/N)NN=C(/C=C/c1ccccc1)c1cccn1Cc1cc(OC)cc(OC)c1` [Compound 2a, (Z)-2-((E)-1-(1-(3,5-Dimethoxybenzyl)-1H-pyrrol-2-yl)-3-phenylallylidene)hydrazine-1-carboximidamide], the IC50 against hBACE 1 was 95.8 ± 3.45 µM; on EeAChE, 231.2 ± 2.26 µM.
For `[H]/N=C(/N)NN=C(/C=C/c1ccc(OC)c(OC)c1)c1cccn1Cc1cc(OC)cc(OC)c1` [Compound 3e, (Z)-2-((E)-1-(1-(3,5-Dimethoxybenzyl)-1H-pyrrol-2-yl)-3-(3,4-dimethoxyphenyl)allylidene)hydrazine-1-carboximidamide], the IC50 came to 162 ± 2.43 µM against hBACE 1 and 57.2 ± 2.47 µM on EeAChE.
In the case of `[H]/N=C(/N)NN=C(/C=C/c1ccccc1)c1cccn1Cc1cc(F)ccc1C` [Compound 2p, (Z)-2-((E)-1-(1-(5-Fluoro-2-methylbenzyl)-1H-pyrrol-2-yl)-3-phenylallylidene)hydrazine-1-carboximidamide], the IC50 was 145 ± 0.28 µM against hBACE 1 and 80.13 ± 0.16 µM against EeAChE.
Take `[H]/N=C(/N)NN=C(/C=C/c1ccccc1F)c1cccn1Cc1ccccc1` [Compound 1e, (Z)-2-((E)-1-(1-Benzyl-1H-pyrrol-2-yl)-3-(2-fluorophenyl)allylidene)hydrazine-1-carboximidamide]: the IC50 against hBACE 1 was determined as 174.5 ± 1.48 µM; at EeAChE it was 172.3 ± 1.56 µM.
For `[H]/N=C(/N)NN=C(/C=C/c1ccccc1Cl)c1cccn1Cc1ccccc1` [Compound 1b, (Z)-2-((E)-1-(1-Benzyl-1H-pyrrol-2-yl)-3-(2-chlorophenyl)allylidene)hydrazine-1-carboximidamide] the same measures were 183.8 ± 0.92 µM and 174 ± 0.92 µM.
On to `[H]/N=C(/N)NN=C(/C=C/c1ccc(OC)c(OC)c1)c1cccn1Cc1ccc(F)cc1C(F)(F)F` [Compound 3c, (Z)-2-((E)-3-(3,4-Dimethoxyphenyl)-1-(1-(4-fluoro-2-(trifluoromethyl)benzyl)-1H-pyrrol-2-yl)allylidene)hydrazine-1-carboximidamide], for which the IC50 worked out at 204 ± 2.33 µM on hBACE 1 (setting [1]) and 58.19 ± 0.44 µM on EeAChE (setting [2]).
`[H]/N=C(/N)NN=C(/C=C/c1ccc(C(C)C)cc1)c1cccn1Cc1ccccc1` [Compound 1h, (Z)-2-((E)-1-(1-Benzyl-1H-pyrrol-2-yl)-3-(4-isopropylphenyl)allylidene)hydrazine-1-carboximidamide]: the results for the IC50 against hBACE 1 and on EeAChE were 108 ± 1.2 µM and 203.8 ± 1.7 µM, respectively.
In the case of `[H]/N=C(/N)NN=C(/C=C/c1ccc(F)cc1)c1cccn1Cc1ccc(Br)cc1` [Compound 3a, (Z)-2-((E)-1-(1-(4-Bromobenzyl)-1H-pyrrol-2-yl)-3-(4-fluorophenyl)allylidene)hydrazine-1-carboximidamide], the IC50 at hBACE 1 (setting [1]) was 165.7 ± 1.34 µM; at EeAChE (setting [2]), 86.09 ± 0.33 µM.
As for `[H]/N=C(/N)NN=C(/C=C/c1ccc(F)c(F)c1)c1cccn1Cc1ccc(C(C)(C)C)cc1` [Compound 3f, (Z)-2-((E)-1-(1-(4-(tert-Butyl)benzyl)-1H-pyrrol-2-yl)-3-(3,4-difluorophenyl)allylidene)hydrazine-1-carboximidamide], the IC50 on hBACE 1 (setting [1]) is 135.9 ± 0.71 µM; at EeAChE (setting [2]), 126.1 ± 0.71 µM.
Take `[H]/N=C(/N)NN=C(/C=C/c1ccc(C(C)(C)C)cc1)c1cccn1Cc1ccc(Br)cc1` [Compound 3i, (Z)-2-((E)-1-(1-(4-Bromobenzyl)-1H-pyrrol-2-yl)-3-(4-(tert-butyl)phenyl)allylidene)hydrazine-1-carboximidamide]: the IC50 was 193 ± 2.12 µM at hBACE 1 and 83.94 ± 0.74 µM against EeAChE.
For `[H]/N=C(/N)NN=C(/C=C/c1ccccc1)c1cccn1Cc1ccc(C(C)C)cc1` [Compound 2r, (Z)-2-((E)-1-(1-(4-Isopropylbenzyl)-1H-pyrrol-2-yl)-3-phenylallylidene)hydrazine-1-carboximidamide] the same measures were 191.3 ± 1.41 µM and 50.4 ± 0.91 µM.
On to `[H]/N=C(/N)NN=C(/C=C/c1ccc(Cl)cc1)c1cccn1Cc1ccc(Br)cc1` [Compound 3l, (Z)-2-((E)-1-(1-(4-Bromobenzyl)-1H-pyrrol-2-yl)-3-(4-chlorophenyl)allylidene)hydrazine-1-carboximidamide], for which the results for the IC50 on hBACE 1 and against EeAChE were 192.3 ± 1.77 µM and 123 ± 3.11 µM, respectively.
The matching figures for `[H]/N=C(/N)NN=C(/C=C/c1ccc(C(C)(C)C)cc1)c1cccn1Cc1ccc(-c2ccccc2)cc1` [Compound 3g, (Z)-2-((E)-1-(1-([1,1′-Biphenyl]-4-ylmethyl)-1H-pyrrol-2-yl)-3-(4-(tert-butyl)phenyl)allylidene)hydrazine-1-carboximidamide]: 185.4 ± 1.84 µM and 76.1 ± 0.79 µM.
Take `[H]/N=C(/N)NN=C(/C=C/c1ccccc1)c1cccn1Cc1cccc(C#N)c1` [Compound 2o, (Z)-2-((E)-1-(1-(3-Cyanobenzyl)-1H-pyrrol-2-yl)-3-phenylallylidene)hydrazine-1-carboximidamide]: the IC50 on hBACE 1 was 147.8 ± 0.28 µM; on EeAChE, 75.4 ± 1.03 µM.
In the case of `[H]/N=C(/N)NN=C(/C=C/c1ccccc1)c1cccn1Cc1ccc(OC(F)F)cc1` [Compound 2c, (Z)-2-((E)-1-(1-(4-(Difluoromethoxy)benzyl)-1H-pyrrol-2-yl)-3-phenylallylidene)hydrazine-1-carboximidamide], the IC50 is 15.4 ± 0.24 µM on hBACE 1 (setting [1]) and 195.8 ± 0.99 µM at EeAChE (setting [2]).
Turning to `[H]/N=C(/N)NN=C(/C=C/c1ccccc1)c1cccn1Cc1ccc(C)cc1` [Compound 2f, (Z)-2-((E)-1-(1-(4-Methylbenzyl)-1H-pyrrol-2-yl)-3-phenylallylidene)hydrazine-1-carboximidamide], the IC50 against hBACE 1 worked out at 85.7 ± 2.43 µM; against EeAChE it was 176.7 ± 0.64 µM.
Take `[H]/N=C(/N)NN=C(/C=C/c1ccc(OC)c(OC)c1)c1cccn1Cc1ccccc1` [Compound 1g, (Z)-2-((E)-1-(1-Benzyl-1H-pyrrol-2-yl)-3-(3,4-dimethoxyphenyl)allylidene)hydrazine-1-carboximidamide]: the IC50 came out at 114 ± 1.7 µM at hBACE 1 and 146 ± 2.4 µM at EeAChE.
Turning to `[H]/N=C(/N)NN=C(/C=C/c1ccccc1)c1cccn1Cc1cc(C(F)(F)F)cc(C(F)(F)F)c1` [Compound 2i, (Z)-2-((E)-1-(1-(3,5-Bis(trifluoromethyl)benzyl)-1H-pyrrol-2-yl)-3-phenylallylidene)hydrazine-1-carboximidamide], the IC50 came out at 139.1 ± 1.13 µM on hBACE 1 and 77.56 ± 0.66 µM on EeAChE.
As to `[H]/N=C(/N)NN=C(/C=C/c1ccc(C(C)(C)C)cc1)c1cccn1Cc1ccc(F)cc1F` [Compound 3d, (Z)-2-((E)-3-(4-(tert-Butyl)phenyl)-1-(1-(2,4-difluorobenzyl)-1H-pyrrol-2-yl)allylidene)hydrazine-1-carboximidamide], the IC50 at hBACE 1 (setting [1]) came to 221.8 ± 1.27 µM; at EeAChE (setting [2]), 104.3 ± 0.14 µM.
Regarding `[H]/N=C(/N)NN=C(/C=C/c1ccccn1)c1cccn1Cc1ccccc1` [Compound 1j, (Z)-2-((E)-1-(1-Benzyl-1H-pyrrol-2-yl)-3-(pyridin-2-yl)allylidene)hydrazine-1-carboximidamide], the IC50 against hBACE 1 is 13.7 ± 0.77 µM; against EeAChE it was 95.6 ± 2.4 µM. In addition, on hBACE 1 (concentration not given), the “BACE 1 inhibition (%)” value stood at 43.62%.

These data come from article PMC11341970 (RSC Advances, 2024).
